Article PMC6691786, “In vitro anticancer potentiality and molecular modelling study of novel amino acid derivatives based on N^1,N^3-bis-(1-hydrazinyl-1-oxopropan-2-yl) isophthalamide” (Journal of Enzyme Inhibition and Medicinal Chemistry, 2019)
“Also recorded” adds a separate entry of the source.

Tests used:
A-549 cell line = assay: MTT cytotoxicity assay, lung carcinoma; assay type: cell-based; settings: Homo sapiens, A549; for inhibition at 100 µM: A-549, at 100 µM
Experimental: (§1) Human colon carcinoma (HCT-116 cell line), human lung carcinoma (A-549), human breast carcinoma (MCF-7 cell line) and human skin normal cell line (BJ-1) were obtained from Karolinska Center, Department of Oncology and Pathology, Karolinska Institute and Hospital, Stockholm, Sweden. IC50 values were performed using SPSS computer program (SPSS for windows, statistical analysis software package/version 9/1989 SPSS Inc., Chicago, IL).
(§2) The procedure was done in laminar air flow cabinet bio safety class II level. Culturing and sub culturing were carried out according to Thabrew et al.[32]. Doxorubicin was used as a positive control. DMSO used as negative control. Cell Viability Assay was done according to Selim et al.[33] as described by Mosmann et al.[34]. The cells were seeded at concentration of 10 × 10^3 cells per well in case of MCF-7, 20 × 10^3 cells/well in case of HCT-116 cell lines using 96-well plates at 37 °C. After 48-h incubation, the medium was aspirated and 40 μl MTT salt (2.5 mg/ml) were added and further incubated for 4 h. About 200 μl 10% sodium dodecyl sulphate (SDS) was added. The absorbance was measured at 595 nm.

MCF-7 cell line = assay: MTT cytotoxicity assay, breast carcinoma; assay type: cell-based; settings: Homo sapiens, MCF7; for inhibition at 100 µM: MCF-7, at 100 µM
Experimental: as §1, §2

HCT-116 cell line = assay: MTT cytotoxicity assay, colon carcinoma; assay type: cell-based; settings: Homo sapiens; for inhibition at 100 µM: HCT-116, at 100 µM; for IC50: HCT-116, MTT, 48-h incubation, read-out: IC50 (mean ± SD)
Experimental: as §1, §2

[1] = tested on: HCT-116, A-549 and MCF-7 cell lines; assay: Preliminary cytotoxicity screen on the three tumour cell lines (MTT); assay type: cell-based, human; settings: for cytotoxic activity (in words, SAR): HCT-116, A-549, MCF-7, compared with related derivatives; for inhibition at 100 µM: Homo sapiens, range over HCT-116, A-549, MCF-7, read-out: % of inhibition towards the three tested cancer cell lines
Experimental: as §1, §2

BCL-2 = BCL-2 level ELISA in MCF-7 cells; assay type: cell-based, human; settings: compound at IC50 for 24 h, compared to control
Experimental: BCL-2 in the samples and standards were estimated according to Barbareschi et al.. A biotin-conjugated antibody was added followed by streptavidin-HRP. The reaction is then terminated by addition of acid and absorbance was measured at 450 nm.

CDK-2 = CDK-2 (Homo sapiens, UniProt P24941); assay: In vitro kinase inhibition ELISA assay; assay type: biochemical; settings: CDK-2 kinase, read-out: IC50 (mean ± SD)
Bax = Bax protein level ELISA in MCF-7 cells; assay type: cell-based, human; settings: compound at IC50 for 24 h
Experimental: Bax protein levels were evaluated according to Onur et al.. Monoclonal antibody specific to Bax captured on the plate is added. After incubation, Strep avid in conjugated to Horseradish peroxidase (HRP) is added. The reaction is terminated by the addition of acid and optical density of the colour produced measured at 450 nm.

MCF-7 cells = assay: DNA fragmentation by DPA assay; assay type: cell-based, human
Experimental: DNA fragmentation of the cells was assayed, as previously described[40]^,[41]. Briefly, the cells were lysed with 20 mM EDTA, 0.5% (v/v) Triton X-100, and […] Tris (pH 8.0) for 15 min on ice. The cells were then centrifuged for 20 min, at 27,000×g, to separate intact chromatin from DNA fragments. The amount of DNA was measured by using a diphenylamine reagent. The optical density is measured at 600 nm.

c-kit = c-kit (Homo sapiens, UniProt P10721); assay: In vitro kinase inhibition ELISA assay; assay type: biochemical; settings: read-out: IC50 (mean ± SD)
Sequence of c-kit (P10721 26-976): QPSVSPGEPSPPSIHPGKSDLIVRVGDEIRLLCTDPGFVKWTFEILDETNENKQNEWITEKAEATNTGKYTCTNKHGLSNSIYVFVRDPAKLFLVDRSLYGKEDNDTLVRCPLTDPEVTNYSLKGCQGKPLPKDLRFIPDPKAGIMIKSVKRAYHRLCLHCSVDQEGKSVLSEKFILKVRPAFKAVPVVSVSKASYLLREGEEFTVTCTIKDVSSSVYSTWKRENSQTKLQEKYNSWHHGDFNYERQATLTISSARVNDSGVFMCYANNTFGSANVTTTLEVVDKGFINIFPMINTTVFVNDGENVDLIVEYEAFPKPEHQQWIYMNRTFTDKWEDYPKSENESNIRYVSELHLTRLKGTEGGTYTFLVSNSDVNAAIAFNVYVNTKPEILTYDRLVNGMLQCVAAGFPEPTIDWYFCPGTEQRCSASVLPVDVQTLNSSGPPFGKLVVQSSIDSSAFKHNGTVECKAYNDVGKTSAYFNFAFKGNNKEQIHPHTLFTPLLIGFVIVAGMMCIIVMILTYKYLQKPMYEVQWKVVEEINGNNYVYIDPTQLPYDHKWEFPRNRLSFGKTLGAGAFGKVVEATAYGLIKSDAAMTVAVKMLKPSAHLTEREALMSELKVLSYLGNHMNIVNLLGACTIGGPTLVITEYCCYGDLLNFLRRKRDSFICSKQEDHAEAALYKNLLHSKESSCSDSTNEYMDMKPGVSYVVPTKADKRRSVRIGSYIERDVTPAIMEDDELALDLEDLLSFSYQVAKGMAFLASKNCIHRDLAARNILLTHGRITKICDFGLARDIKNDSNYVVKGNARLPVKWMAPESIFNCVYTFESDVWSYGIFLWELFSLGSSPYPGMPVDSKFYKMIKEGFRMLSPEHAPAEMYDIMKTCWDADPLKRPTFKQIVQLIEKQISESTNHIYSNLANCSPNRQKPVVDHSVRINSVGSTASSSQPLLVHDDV

tubulin beta (TUBb) = assay: ELISA kit for tubulin beta (TUBb) in MCF-7 cells; assay type: cell-based, human; settings: in comparison with colchicine
Experimental: MCF-7 cells were inoculated at concentration 1.2–1.8 × 10,000 cells/well using DMEM (supplemented with 10% FBS and 1% penicillin–streptomycin). Tested compound added for 18–24 h before the enzyme assay for Tubulin. Avidin conjugated to HRP is added to each microplate well and incubated. […] Sulphuric acid solution added to terminate enzymatic reaction. Colour change is measured spectrophotometrically at a wavelength of 450 nm ± 10 nm[39].

[2] = tested on: BJ-1 normal skin fibroblasts cell line; assay: MTT cytotoxicity on normal skin cell line; assay type: cell-based, human; settings: BJ-1 normal skin cells, at 100 µM
Experimental: as §1, §2

p53 = p53 level ELISA in MCF-7 cells; assay type: cell-based, human; settings: compound at IC50 for 24 h, compared to control
Experimental: Human p53 present in the sample or standard binds to antibodies adsorbed to the microwells. A biotin-conjugated is added. After incubation and dispense of unbound biotin-conjugated streptavidin HRP is added. The reaction is terminated by addition of acid and absorbance is measured at 450 nm[37].

EGFR = EGFR (Homo sapiens, UniProt P00533); assay: In vitro kinase inhibition ELISA assay; assay type: biochemical; settings: read-out: IC50 (mean ± SD)
Sequence of EGFR (P00533 25-1210): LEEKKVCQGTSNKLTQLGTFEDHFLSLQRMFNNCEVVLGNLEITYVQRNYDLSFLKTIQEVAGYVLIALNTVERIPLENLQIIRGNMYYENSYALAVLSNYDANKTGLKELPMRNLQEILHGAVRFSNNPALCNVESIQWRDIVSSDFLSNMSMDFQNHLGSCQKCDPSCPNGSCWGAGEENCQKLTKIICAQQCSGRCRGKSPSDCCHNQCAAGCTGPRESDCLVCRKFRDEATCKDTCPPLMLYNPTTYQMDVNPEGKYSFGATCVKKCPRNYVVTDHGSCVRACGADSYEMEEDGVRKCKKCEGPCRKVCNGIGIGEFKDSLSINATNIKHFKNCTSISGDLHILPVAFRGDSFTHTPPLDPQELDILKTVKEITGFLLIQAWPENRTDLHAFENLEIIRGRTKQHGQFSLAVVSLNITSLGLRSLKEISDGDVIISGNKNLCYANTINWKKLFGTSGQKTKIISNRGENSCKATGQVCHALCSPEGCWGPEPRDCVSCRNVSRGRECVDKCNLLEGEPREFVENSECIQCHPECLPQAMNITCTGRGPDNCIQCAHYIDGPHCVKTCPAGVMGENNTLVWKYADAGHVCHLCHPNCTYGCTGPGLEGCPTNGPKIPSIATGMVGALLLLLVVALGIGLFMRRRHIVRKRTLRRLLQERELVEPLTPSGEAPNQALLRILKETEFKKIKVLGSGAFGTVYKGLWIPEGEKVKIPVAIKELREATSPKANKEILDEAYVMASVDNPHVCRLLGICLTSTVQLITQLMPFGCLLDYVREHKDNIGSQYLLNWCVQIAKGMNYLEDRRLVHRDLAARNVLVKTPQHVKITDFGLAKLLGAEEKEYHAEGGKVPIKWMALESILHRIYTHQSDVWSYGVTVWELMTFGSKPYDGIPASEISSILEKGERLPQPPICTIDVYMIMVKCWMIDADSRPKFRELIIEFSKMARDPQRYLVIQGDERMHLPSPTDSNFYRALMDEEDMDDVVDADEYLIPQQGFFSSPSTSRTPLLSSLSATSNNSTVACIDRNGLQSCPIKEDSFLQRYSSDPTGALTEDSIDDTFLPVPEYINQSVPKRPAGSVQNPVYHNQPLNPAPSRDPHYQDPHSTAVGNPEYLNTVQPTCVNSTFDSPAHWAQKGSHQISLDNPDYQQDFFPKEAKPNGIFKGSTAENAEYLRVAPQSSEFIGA
Experimental: The in vitro enzyme inhibition assessment for compound 5 was performed at confirmatory diagnostic unit, Vacsera, Egypt.

CASP-7 = assay: Human caspase-7 (CASP-7) estimation ELISA in MCF-7 cells; assay type: cell-based
Experimental: The micro ELISA plate provided in this kit pre-coated with CASP7-specific antibody. A biotinylated CASP7 antibody and Avidin–HRP conjugate was added. Aspire the excess components. The substrate solution was added wells that contain CASP7, biotinylated detection antibody and Avidin–HRP conjugate will appear blue in colour. The colour turns yellow followed the addition of sulphuric acid solution. The optical density (OD) was measured at a wavelength of 450 nm ± 2 nm[38].

VEGFR-2 = VEGFR-2 (Homo sapiens, UniProt P35968); assay: In vitro kinase inhibition ELISA assay; assay type: biochemical; settings: VEGFR-2 kinase, read-out: IC50 (mean ± SD)
Sequence of VEGFR-2 (P35968 20-1356): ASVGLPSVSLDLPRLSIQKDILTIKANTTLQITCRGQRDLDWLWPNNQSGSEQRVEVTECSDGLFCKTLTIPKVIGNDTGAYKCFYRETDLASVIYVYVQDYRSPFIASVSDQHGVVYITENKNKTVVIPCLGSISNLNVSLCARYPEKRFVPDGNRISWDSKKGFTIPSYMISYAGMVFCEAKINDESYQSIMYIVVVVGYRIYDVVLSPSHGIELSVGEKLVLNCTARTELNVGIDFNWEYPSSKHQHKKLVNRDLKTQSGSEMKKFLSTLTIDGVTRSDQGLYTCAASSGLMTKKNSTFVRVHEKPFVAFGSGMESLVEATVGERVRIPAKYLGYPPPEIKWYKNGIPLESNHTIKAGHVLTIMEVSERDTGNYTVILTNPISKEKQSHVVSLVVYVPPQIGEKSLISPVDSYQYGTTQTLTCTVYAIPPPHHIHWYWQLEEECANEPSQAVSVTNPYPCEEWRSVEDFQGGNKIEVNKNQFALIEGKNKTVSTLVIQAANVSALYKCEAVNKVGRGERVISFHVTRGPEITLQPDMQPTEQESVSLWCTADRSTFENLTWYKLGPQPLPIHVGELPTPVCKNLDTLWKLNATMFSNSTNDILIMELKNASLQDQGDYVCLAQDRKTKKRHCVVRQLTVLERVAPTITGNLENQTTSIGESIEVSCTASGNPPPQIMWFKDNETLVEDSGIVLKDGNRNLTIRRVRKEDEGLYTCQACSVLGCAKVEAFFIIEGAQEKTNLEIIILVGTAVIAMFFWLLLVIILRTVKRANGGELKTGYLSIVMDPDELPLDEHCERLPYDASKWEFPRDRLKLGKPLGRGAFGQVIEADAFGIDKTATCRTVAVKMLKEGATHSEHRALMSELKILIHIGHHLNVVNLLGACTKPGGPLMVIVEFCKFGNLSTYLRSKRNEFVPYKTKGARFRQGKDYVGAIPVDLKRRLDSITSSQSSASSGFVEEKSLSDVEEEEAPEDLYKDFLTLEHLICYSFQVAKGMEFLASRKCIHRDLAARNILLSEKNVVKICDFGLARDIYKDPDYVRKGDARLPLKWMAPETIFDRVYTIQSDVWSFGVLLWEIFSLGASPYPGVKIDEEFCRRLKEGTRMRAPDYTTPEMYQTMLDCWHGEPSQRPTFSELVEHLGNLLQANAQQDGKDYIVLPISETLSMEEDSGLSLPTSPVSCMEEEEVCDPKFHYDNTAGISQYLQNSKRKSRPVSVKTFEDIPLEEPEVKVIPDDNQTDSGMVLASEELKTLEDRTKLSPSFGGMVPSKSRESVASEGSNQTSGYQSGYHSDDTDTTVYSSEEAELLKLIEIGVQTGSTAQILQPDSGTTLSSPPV

## CC(NC(=O)c1cccc(C(=O)NC(C)C(=O)NN)c1)C(=O)NN (centres unmarked) [Compound 4, N^1,N^3-bis-(1-hydrazinyl-1-oxopropan-2-yl) isophthalamide]
A-549 cell line
  inhibition at 100 µM: 0.9%
MCF-7 cell line
  inhibition at 100 µM: 1.8%
other
  melting point: 232 to 234 °C
HCT-116 cell line
  inhibition at 100 µM: 2.3%

## CC(NC(=O)c1cccc(C(=O)NC(C)C(=O)NN=C[C@@H](O)[C@H](O)[C@H](O)CO)c1)C(=O)NN=C[C@@H](O)[C@H](O)[C@H](O)CO (stereo partly drawn) [Compound 9, N^1,N^3-bis (1-oxo-1-(-2-((2R, 3S, 4R)-2,3,4,5-tetrahydroxypentylidene) hydrazinyl)propan-2-yl) isophthalamide]
[1]
  cytotoxic activity (in words, SAR): dramatic drop in the anticancer effect

## CC(NC(=O)c1cccc(C(=O)NC(C)C(=O)NN=C[C@H](O)[C@@H](O)[C@H](O)CO)c1)C(=O)NN=C[C@H](O)[C@@H](O)[C@H](O)CO (stereo partly drawn) [Compound 8, N^1,N^3-bis (1-oxo-1-(-2-((2S, 3 R, 4 R)-2,3,4,5-tetrahydroxypentylidene) hydrazinyl)propan-2-yl) isophthalamide]
[1]
  cytotoxic activity (in words, SAR): dramatic drop in the anticancer effect

## CC(NC(=O)c1cccc(C(=O)NC(C)C(=O)NN2C(=O)CSC2c2ccc(F)cc2)c1)C(=O)NN1C(=O)CSC1c1ccc(F)cc1 (centres unmarked) [Compound 15, N^1,N^3-bis-(1-(2-(4-fluorophenyl)-4-oxothiazolidin-3-ylamino)-1-oxopropan-2-yl) isophthalamide]
other
  melting point: 168 to 170 °C

## CC(NC(=O)c1cccc(C(=O)NC(C)C(=O)NN=Cc2ccc(F)cc2)c1)C(=O)NN=Cc1ccc(F)cc1 (centres unmarked) [Compound 11, N^1,N^3-bis-(1-(-2-(4-fluorobenzylidene) hydrazinyl)-1-oxopropan-2-yl) isophthalamide]
other
  melting point: 285 to 287 °C
[1]
  cytotoxic activity (in words, SAR): variable and noticeable increase in the cytotoxic activity

## COc1ccc(C=NNC(=O)C(C)NC(=O)c2cccc(C(=O)NC(C)C(=O)NN=Cc3ccc(OC)c(OC)c3)c2)cc1OC (centres unmarked) [Compound 13, N^1,N^3-bis-(1-(-2-(3,4-dimethoxybenzylidene) hydrazinyl)-1-oxopropan-2-yl) isophthalamide]
other
  melting point: 277 to 279 °C
[1]
  cytotoxic activity (in words, SAR): reduction in the activity

## COc1ccc(C=NNC(=O)C(C)NC(=O)c2cccc(C(=O)NC(C)C(=O)NN=Cc3ccc(OC)cc3)c2)cc1 (centres unmarked) [Compound 12, N^1,N^3-bis-(1-(-2-(4-methoxybenzylidene) hydrazinyl)-1-oxopropan-2-yl) isophthalamide]
MCF-7 cell line; MCF-7, MTT, 48-h incubation, read-out: IC50 (mean ± SD)
  IC50: 51 nM
other
  melting point: 273 to 275 °C
[1]
  cytotoxic activity (in words, SAR): variable and noticeable increase in the cytotoxic activity
  inhibition at 100 µM: 72.5 to 98.3%

## CC(NC(=O)c1cccc(C(=O)NC(C)C(=O)NN=Cc2ccc(Cl)cc2)c1)C(=O)NN=Cc1ccc(Cl)cc1 (centres unmarked) [Compound 10, N^1,N^3-bis-(1-(-2-(4-chlorobenzylidene) hydrazinyl)-1-oxopropan-2-yl) isophthalamide]
other
  melting point: 296 to 298 °C
[1]
  cytotoxic activity (in words, SAR): variable and noticeable increase in the cytotoxic activity

## COc1cccc2c1C(=O)c1c(O)c3c(c(O)c1C2=O)C[C@@](O)(C(=O)CO)C[C@@H]3O[C@H]1C[C@H](N)[C@H](O)[C@H](C)O1 [Doxorubicin, reference compound]
HCT-116 cell line
  IC50: 65 nM

## CC(NC(=O)c1cccc(C(=O)NC(C)C(=O)NN2C(=O)CSC2c2ccc(Cl)cc2)c1)C(=O)NN1C(=O)CSC1c1ccc(Cl)cc1 (centres unmarked) [Compound 14, N^1,N^3-bis-(1-(2-(4-chlorophenyl)-4-oxothiazolidin-3-ylamino)-1-oxopropan-2-yl) isophthalamide]
A-549 cell line; A-549, MTT, read-out: IC50 (mean ± SD)
  IC50: 41 nM
other
  melting point: 218 to 220 °C
[1]
  inhibition at 100 µM: 72.5 to 98.3%

## COc1ccc(C2SCC(=O)N2NC(=O)C(C)NC(=O)c2cccc(C(=O)NC(C)C(=O)NN3C(=O)CSC3c3ccc(OC)cc3)c2)cc1 (centres unmarked)
other
  melting point: 242 to 244 °C

## CC(NC(=O)c1cccc(C(=O)NC(C)C(=O)N/N=C2/C(=O)Nc3ccccc32)c1)C(=O)N/N=C1\C(=O)Nc2ccccc21 (centres unmarked) [Compound 5, N^1-(1-oxo-1-(-2-(2-oxoindolin-3-ylidene) hydrazinyl)propan-2-yl)-N^3-(1-oxo-1-(-2-(2-oxoindolin-3-ylidene) hydrazinyl)propan-2-yl) isophthalamide]
BCL-2
  BCL-2 expression level: down-expression
CDK-2
  IC50: 6240 ± 1210 nM
Bax
  Bax/BCL-2 ratio: significant elevation; also recorded: significantly elevated
Bax; compared to control
  Bax expression level: significant up-expression
MCF-7 cells
  % of DNA fragmentation: remarkable % of DNA fragmentation
c-kit
  IC50: 2850 ± 40 nM
other
  melting point: 271 to 273 °C
Tubulin beta (TUBb)
  effect on microtubule-polymer mass (tubulin polymerization, TubB): moderate effect
HCT-116 cell line
  IC50: 14 nM
[1]
  inhibition at 100 µM: 72.5 to 98.3%
[2]
  % inhibition (cytotoxicity on normal cells): 32.6%
p53
  p53 expression level: significant up-expression
EGFR
  IC50: 780 ± 1250 nM
CASP-7
  level of active CASP-7: significant increase
VEGFR-2
  IC50: 3170 ± 1000 nM

## CC(NC(=O)c1cccc(C(=O)NC(C)C(=O)NN=C2C(=O)Nc3ccc(Cl)cc32)c1)C(=O)NN=C1C(=O)Nc2ccc(Cl)cc21 (centres unmarked) [Compound 6, N^1-(1-(-2-(5-chloro-2-oxoindolin-3-ylidene)hydrazinyl)-1-oxopropan-2-yl)-N^3-(1-(-2-(5-chloro-2-oxoindolin-3-ylidene) hydrazinyl)-1-oxopropan-2-yl)isophthalamide]
A-549 cell line
  inhibition at 100 µM: 48.4%
MCF-7 cell line
  inhibition at 100 µM: 19.6%
other
  melting point: 271 to 273 °C
HCT-116 cell line
  inhibition at 100 µM: 33.1%

## CC(NC(=O)c1cccc(C(=O)NC(C)c2n[nH]c(=S)o2)c1)c1n[nH]c(=S)o1 (centres unmarked) [Compound 7, N^1,N^3-bis (1-(5-thioxo-4,5-dihydro-1,3,4-oxadiazol-2-yl)ethyl) isophthalamide]
MCF-7 cell line
  inhibition at 100 µM: 77.5%
other
  melting point: 132 to 134 °C
[1]
  inhibition at 100 µM: 72.5 to 98.3%
